Measurements published in ChEMBL document CHEMBL1201862, “PubChem BioAssay data set” (2004).
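Results reflect a 48-hour exposure of cells in 96-well plates to compound at five concentrations. GI50 is the concentration that inhibits growth by half.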 Active and inactive are the calls of the source. No stated cut-off is given here; in the data, active = GI50 up to about 1.1 µM and inactive = higher.

Key:
Test in all cases: NCI anticancer screen, dose series, 48 h
PC-3 = system: PC-3
OVCAR-8 = system: OVCAR-8
MDA-N = system: MDA-N
ACHN = system: ACHN
HOP-92 = system: HOP-92
Hs-578T = system: Hs-578T
SK-OV-3 = system: SK-OV-3
786-0 = system: 786-0
UO-31 = system: UO-31
SF-295 = system: SF-295
TK-10 = system: TK-10
UACC-257 = system: UACC-257
OVCAR-5 = system: OVCAR-5
SK-MEL-28 = system: SK-MEL-28
HOP-62 = system: HOP-62
SNB-19 = system: SNB-19
K562 = system: K562
SR = system: SR
OVCAR-3 = system: OVCAR-3
DU-145 = system: DU-145
SNB-75 = system: SNB-75
M14 = system: M14
HT-29 = system: HT-29
RXF 393 = system: RXF 393
HCC 2998 = system: HCC 2998
NCI-H23 = system: NCI-H23
A549 = system: A549
MOLT-4 = system: MOLT-4
KM12 = system: KM12
SF-539 = system: SF-539
NCI-H226 = system: NCI-H226
COLO 205 = system: COLO 205
A498 = system: A498
MDA-MB-435 = system: MDA-MB-435
SW-620 = system: SW-620
NCI-H460 = system: NCI-H460
T47D = system: T47D
HL-60 = system: HL-60
SF-268 = system: SF-268
CCRF-CEM = system: CCRF-CEM
SN12C = system: SN12C
MCF7 = system: MCF7
IGROV-1 = system: IGROV-1
Malme-3M = system: Malme-3M
EKVX = system: EKVX
RPMI-8226 = system: RPMI-8226
NCI/ADR-RES = system: NCI/ADR-RES
U-251 = system: U-251
HCT-116 = system: HCT-116
UACC-62 = system: UACC-62
BT-549 = system: BT-549
HCT-15 = system: HCT-15
SK-MEL-5 = system: SK-MEL-5
SK-MEL-2 = system: SK-MEL-2
LOX IMVI = system: LOX IMVI
CAKI-1 = system: CAKI-1
OVCAR-4 = system: OVCAR-4
NCI-H522 = system: NCI-H522
MDA-MB-231 = system: MDA-MB-231

Measured: GI50

COc1cc(COC(=O)N2CCC2C(=O)O)c([N+](=O)[O-])cc1OC (centres undefined)
inactive: PC-3 > 100 µM | OVCAR-8 > 100 µM | MDA-N > 100 µM | ACHN > 100 µM | HOP-92 > 100 µM | Hs-578T > 100 µM | SK-OV-3 > 100 µM | 786-0 > 100 µM | UO-31 > 100 µM | SF-295 > 100 µM | TK-10 > 100 µM | UACC-257 > 100 µM | OVCAR-5 > 100 µM | SK-MEL-28 > 100 µM | HOP-62 > 100 µM | SNB-19 > 100 µM | K562 > 100 µM | SR > 100 µM | OVCAR-3 > 100 µM | DU-145 > 100 µM | SNB-75 > 100 µM | M14 > 100 µM | HT-29 > 100 µM | RXF 393 > 100 µM | HCC 2998 > 100 µM | NCI-H23 > 100 µM | A549 > 100 µM | MOLT-4 > 100 µM | KM12 > 100 µM | SF-539 > 100 µM | NCI-H226 > 100 µM | COLO 205 > 100 µM | A498 > 100 µM | MDA-MB-435 > 100 µM | SW-620 > 100 µM | NCI-H460 > 100 µM | T47D > 100 µM | HL-60 > 100 µM | SF-268 > 100 µM | CCRF-CEM > 100 µM | SN12C > 100 µM | MCF7 > 100 µM | IGROV-1 > 100 µM | Malme-3M > 100 µM | EKVX > 100 µM | RPMI-8226 > 100 µM | NCI/ADR-RES > 100 µM | U-251 > 100 µM | HCT-116 > 100 µM | UACC-62 > 100 µM | BT-549 > 100 µM | SK-MEL-5 > 100 µM
> 100 µM: HCT-15

C/C(=C\c1ccccc1)n1c(=O)cc(C)n1C
inactive: PC-3 > 100 µM | SK-MEL-2 > 100 µM | OVCAR-8 > 100 µM | MDA-N > 100 µM | ACHN > 100 µM | HOP-92 > 100 µM | Hs-578T > 100 µM | SK-OV-3 > 100 µM | UO-31 > 100 µM | SF-295 > 100 µM | TK-10 > 100 µM | UACC-257 > 100 µM | OVCAR-5 > 100 µM | SK-MEL-28 > 100 µM | HOP-62 > 100 µM | SNB-19 > 100 µM | K562 > 100 µM | OVCAR-3 > 100 µM | DU-145 > 100 µM | SNB-75 > 100 µM | M14 > 100 µM | HT-29 > 100 µM | RXF 393 > 100 µM | HCC 2998 > 100 µM | NCI-H23 > 100 µM | A549 > 100 µM | MOLT-4 25.7 µM | KM12 > 100 µM | LOX IMVI > 100 µM | SF-539 > 100 µM | NCI-H226 > 100 µM | COLO 205 > 100 µM | MDA-MB-435 > 100 µM | SW-620 > 100 µM | NCI-H460 > 100 µM | T47D > 100 µM | SF-268 > 100 µM | CCRF-CEM > 100 µM | SN12C > 100 µM | MCF7 > 100 µM | IGROV-1 > 100 µM | EKVX > 100 µM | RPMI-8226 > 100 µM | NCI/ADR-RES > 100 µM | U-251 > 100 µM | CAKI-1 > 100 µM | OVCAR-4 > 100 µM | HCT-116 > 100 µM | UACC-62 > 100 µM | BT-549 > 100 µM | SK-MEL-5 > 100 µM

Cc1c(Br)c(Br)c(C)[s+]1[O-]
inactive: PC-3 17.5 µM | SK-MEL-2 13.3 µM | OVCAR-8 21.6 µM | MDA-N 12.6 µM | ACHN 19 µM | HOP-92 45.9 µM | Hs-578T 28.5 µM | SK-OV-3 23.8 µM | 786-0 16.9 µM | UO-31 13.6 µM | SF-295 20 µM | TK-10 21.2 µM | UACC-257 12.2 µM | OVCAR-5 18 µM | NCI-H522 8.02 µM | SK-MEL-28 17.6 µM | HOP-62 15.6 µM | SNB-19 20.7 µM | K562 25.6 µM | SR 3.28 µM | OVCAR-3 5.92 µM | M14 13.4 µM | HT-29 15.4 µM | HCC 2998 18.4 µM | NCI-H23 25.3 µM | A549 15.6 µM | MOLT-4 3.48 µM | KM12 13.8 µM | LOX IMVI 11.1 µM | SF-539 5.38 µM | NCI-H226 28.4 µM | COLO 205 2.57 µM | A498 27.4 µM | MDA-MB-435 9.16 µM | SW-620 8.89 µM | NCI-H460 14.6 µM | T47D 34.9 µM | HL-60 3.2 µM | SF-268 25.2 µM | MDA-MB-231 22.9 µM | CCRF-CEM 1.92 µM | SN12C 11.8 µM | MCF7 25 µM | IGROV-1 26.7 µM | Malme-3M 17.3 µM | EKVX 15.1 µM | RPMI-8226 3.8 µM | NCI/ADR-RES 29 µM | U-251 11.6 µM | CAKI-1 13.7 µM | OVCAR-4 26.2 µM | HCT-116 6 µM | UACC-62 20.4 µM | BT-549 16.3 µM | SK-MEL-5 10.4 µM
12.4 µM: HCT-15

O=C1C[C@H](c2ccccc2)C2(C(=O)c3ccccc3C2=O)[C@H](c2ccccc2)C1
inactive: PC-3 > 100 µM | SK-MEL-2 16.6 µM | OVCAR-8 > 100 µM | MDA-N 85.7 µM | HOP-92 32.2 µM | Hs-578T 29.8 µM | SK-OV-3 19.5 µM | UO-31 > 100 µM | SF-295 > 100 µM | OVCAR-5 > 100 µM | NCI-H522 91 µM | SK-MEL-28 > 100 µM | HOP-62 24.3 µM | SNB-19 > 100 µM | K562 > 100 µM | SR > 100 µM | OVCAR-3 > 100 µM | DU-145 75 µM | SNB-75 27 µM | M14 > 100 µM | HT-29 > 100 µM | RXF 393 12.1 µM | HCC 2998 > 100 µM | NCI-H23 > 100 µM | MOLT-4 61.2 µM | KM12 > 100 µM | NCI-H226 > 100 µM | COLO 205 88.7 µM | A498 > 100 µM | MDA-MB-435 > 100 µM | NCI-H460 > 100 µM | T47D > 100 µM | HL-60 > 100 µM | MDA-MB-231 9.42 µM | CCRF-CEM > 100 µM | SN12C > 100 µM | IGROV-1 9.08 µM | Malme-3M > 100 µM | RPMI-8226 > 100 µM | NCI/ADR-RES > 100 µM | U-251 > 100 µM | CAKI-1 > 100 µM | OVCAR-4 > 100 µM | HCT-116 46.5 µM | UACC-62 79.1 µM | BT-549 86.9 µM | SK-MEL-5 63.1 µM
> 100 µM: HCT-15

CCOC(=O)c1nc2ccccc2nc1Nc1ccc(Cl)c(Cl)c1
inactive: SK-MEL-2 89.7 µM | OVCAR-8 29.9 µM | MDA-N 68.1 µM | ACHN 76.7 µM | HOP-92 16.8 µM | Hs-578T 34.4 µM | SK-OV-3 27.7 µM | 786-0 29.2 µM | UO-31 40.8 µM | TK-10 31.4 µM | OVCAR-5 > 100 µM | NCI-H522 45.7 µM | SK-MEL-28 > 100 µM | HOP-62 30.4 µM | SNB-19 27.2 µM | K562 76.7 µM | SR > 100 µM | OVCAR-3 59.3 µM | DU-145 > 100 µM | SNB-75 20.9 µM | M14 57.8 µM | HT-29 > 100 µM | HCC 2998 > 100 µM | NCI-H23 33.7 µM | A549 59.4 µM | MOLT-4 > 100 µM | KM12 > 100 µM | SF-539 60.5 µM | COLO 205 67.9 µM | MDA-MB-435 > 100 µM | NCI-H460 11 µM | T47D 60.8 µM | HL-60 30.8 µM | SF-268 37.6 µM | MDA-MB-231 > 100 µM | CCRF-CEM > 10 µM | SN12C 81.5 µM | MCF7 70 µM | IGROV-1 32.5 µM | Malme-3M 16.2 µM | EKVX 60.5 µM | RPMI-8226 57.7 µM | NCI/ADR-RES > 100 µM | U-251 23.7 µM | CAKI-1 24.5 µM | OVCAR-4 27.9 µM | HCT-116 29 µM | UACC-62 25.6 µM | BT-549 12.8 µM | SK-MEL-5 21.5 µM
> 100 µM: HCT-15
